Experimental data: patent publication US20190321355A1, “TREATMENT OF MENTAL, MOVEMENT AND BEHAVIORAL DISORDERS” (priority 2016, published 2019)
Where a name gives a salt, the structure may show the parent alone. Read-outs that look alike come from different tables or passages of the source.

How the values were obtained:
Sabra mice = assay: Ultrasonic vocals, SR141716A-induced vocal tic-like behavior; type: in vivo
C57BL/6JOlaHsd mice [1] = type: in vivo; conditions: for DOI-induced repetitive head twitches: dose not given
[2] = test system: CB2 receptor knockout mice; assay: DOI-induced head twitch response (HTR) in CB2 receptor knockout mice; type: in vivo
Experimental: (§1) • 1. CB2 receptor selective ligands or CB2/SERM ligands were injected intraperitoneally or orally at doses of 0.001 to 100 mg/kg one to two hours before the injection of DOI. In order to test the effect of DOI on head twitch responses, ear scratch and grooming responses, DOI was intraperitoneally injected at a dose of 1 mg/kg.
(§2) After DOI or saline injection, mice were placed in a transparent glass cage 30×40×31 cm divided into squares of 7.5×7.5 cm. Head twitch responses (HTRs) were manually counted by an observer. The HTR in mice is a distinctive behavior that cannot be misplaced with other head movements. After 5 min habitation to the cage the HTR were counted every 3 min for 15 min (a total of 20 min in the cage).
(§3) With a view to further study the effect of the MH compositions on repetitive behavior, CB2 receptor knockout mice (The Jackson Laboratory) were intraperitoneally injected at age 3 weeks or 6 weeks with a single dose of MH at 0.2-50 mg/kg or equivalent vehicle. One hour later mice were intraperitoneally injected a single dose of 1 mg/kg DOI or saline. HTR responses, grooming and ESR responses in mice were recorded.
as §3, with “HU-308” for “MH”, “6-21” for “6”, “responses” for “responses, grooming”

C57BL/6JOlaHsd mice [3] = assay: DOI-induced ear scratch response (ESR) / urge-like behavior; type: in vivo
Experimental: as §1
(§4) ESR behavior is a measure for urge-like behavior and often preceded HTRs. The ESR is a rapid scratching movement of the head, neck, ears, or other body surfaces by either hindlimbs. The number of ESRs was manually counted. Every ESR was also counted as a grooming. In some experiments, each ESR was considered as a separate episode if the animal moved. In some experiments, each ESR was considered as a separate episode for every ESR.
as §3, with “In order” for “With a view”, “C57BL/6JOlaHsd” for “CB2 receptor knockout”, “mice” for “mice (The Jackson Laboratory)”, “responses” for “responses, grooming”

[4] = 5 mg/kg during postnatal days 5-13; U.S. Pat. No. 9,486,419; cited from earlier work
C57BL/6JOlaHsd mice [5] = assay: Head twitch response after drug alone (saline instead of DOI); type: in vivo
Experimental: as §2
(§5) With a view to further study the effect of the MH compositions on repetitive behavior, C57BL/6JOlaHsd mice were intraperitoneally injected at age 3 weeks or 6 weeks with a single dose of MH at 0.2-50 mg/kg or equivalent vehicle. Optionally, one hour later mice received a single injection of saline (i.e. in the absence of DOI to test the effect of MH alone). HTR responses, ESR and grooming responses in mice were recorded.
as §5, with “HU-308” for “MH”, “weeks” for “weeks or 6 weeks”, “vehicle” for “vehicle. Optionally,”, “responses and” for “responses,”, “ESR” for “ESR and grooming”

C57BL/6JOlaHsd mice [6] = assay: Marble burying test (compulsive behavior); type: in vivo; conditions: age 6 weeks, one hour after a single injection
Experimental: Mice were habituated to the test room for 1 h. A mouse was injected with DOI as above and then placed in the experimental cage (white plastic 36×24.5 ×14.5 cm) filled with 5 cm sawdust for 5 min, in the absence of marbles. The mouse was taken out and twenty black glass were arranged 4 by 5 with 7 cm apart and 1 cm apart from the wells of the cage. Each mouse was tested for its marble burying activity for 30 min. Activity was videotaped with EthoVision and buried marbles were counted manually at the end of the experiment (after 30 min). A marble considered as buried when it was sawdust-covered by two third of its volume. Marbles that were moved were also counted.
With a view to study the effect of the JTE-907 and M1 compositions on repetitive behavior, C57BL/6JOlaHsd mice were intraperitoneally injected at age 6 weeks with a single dose of JTE-907 at 0.2-50 mg/kg, M1 at 0.2-50 mg/kg or equivalent vehicle. The number of buried marbles in the burying marble test by each mouse was recorded.

CB2 receptor = CB2 receptor (Homo sapiens, UniProt P34972); conditions: Schuehly et al. 2011; read-out: Ki, CB2 receptor ligand; cited from earlier work
Sequence of CB2 receptor (P34972 whole entry): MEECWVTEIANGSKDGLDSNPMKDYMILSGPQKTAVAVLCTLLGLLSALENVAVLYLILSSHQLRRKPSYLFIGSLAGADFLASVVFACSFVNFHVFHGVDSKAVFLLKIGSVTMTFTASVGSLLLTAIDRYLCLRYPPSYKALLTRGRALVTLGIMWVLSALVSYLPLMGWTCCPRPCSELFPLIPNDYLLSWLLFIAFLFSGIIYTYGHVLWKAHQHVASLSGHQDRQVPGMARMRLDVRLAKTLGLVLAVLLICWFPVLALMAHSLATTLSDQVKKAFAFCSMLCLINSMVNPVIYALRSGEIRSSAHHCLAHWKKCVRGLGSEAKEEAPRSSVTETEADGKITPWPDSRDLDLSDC

C57BL/6JOlaHsd mice [7] = assay: ESR/grooming (urge-like response) after drug alone; type: in vivo; conditions: doses 1-20 mg/kg i.p., age 6 weeks, no DOI
From the text: as §4
Grooming behavior is a measure for anxiety. Grooming behavior in mice is characterized by licking its fur, groom with the forepaws, or scratch with any limb. Often the mouse will mix all of these grooming behaviors. The number of grooms was manually counted. In some experiments, each grooming behavior was considered as a separate episode if the animal moved its hindlimbs. In some experiments, each grooming behavior was considered as a separate episode for every grooming behavior.
as §5

[8] = 10 mg/kg i.p. single dose, age 3 weeks, one hour before DOI 1 mg/kg i.p.
[9] = 0.2 mg/kg i.p., age 3 weeks, one hour before DOI
[10] = 5 mg/kg i.p., age 3 weeks, one hour before DOI 1 mg/kg

Cc1c(C(=O)NN2CCCCC2)nn(-c2ccc(Cl)cc2Cl)c1-c1ccc(Cl)cc1 [SR141716A]
vocalization vs control litter mates (Sabra mice; administered to mice pups at the age of one to two days): higher level of vocalization and/or higher number of vocals

CCN(CC)CCOc1ccc(C(=C(Cl)c2ccccc2)c2ccccc2)cc1 [clomiphene citrate]
DOI-induced HTR frequency (C57BL/6JOlaHsd mice [1]; [8]): did not significantly reverse

O=C(c1ccc(OCCN2CCCCC2)cc1)c1c(-c2ccc(O)cc2)sc2cc(O)ccc12 [raloxifene]
DOI-induced HTR frequency (C57BL/6JOlaHsd mice [1]; [8]): reduced

COc1cc(CC(C)N)c(OC)cc1I.Cl (single isomer, unassigned; (-)) [DOI, (−)-1-(2,5-dimethoxy-4-iodophenyl)-2-aminopropane hydrochloride]
HTR frequency in CB2 receptor knockout mice after DOI ([2]; DOI 1 mg/kg i.p., age 6 weeks): increased | ESR frequency, DOI vs control mice (C57BL/6JOlaHsd mice [3]; DOI 1 mg/kg i.p.): increased | HTR frequency, model mice (DOI) vs control mice (C57BL/6JOlaHsd mice [1]; DOI 1 mg/kg i.p., age 3 weeks): increased

C=C1CC/C=C(\C)CC[C@@H]2[C@@H]1CC2(C)C [BCP, beta-caryophyllene]
DOI-induced repetitive head twitches (C57BL/6JOlaHsd mice [1]): able to reduce

CCCCCCC(C)(C)c1cc(OC)c([C@@H]2C=C(CO)[C@@H]3C[C@H]2C3(C)C)c(OC)c1 [HU-308, [(1R,2R,5R)-2-[2,6-dimethoxy-4-(2-methyloctan-2-yl)phenyl]-7,7-dimethyl-4-bicyclo[3.1.1]hept-3-enyl] methanol]
motor tics/head twitches at the age of 12 weeks, open field test [4]: induce abnormal motor tics/head twitches | DOI-induced HTR frequency in CB2 receptor knockout mice ([2]; 5 mg/kg i.p., male, age 6-21 weeks, DOI 1 mg/kg): significantly reduces | repetitive behavior (HTR), drug alone (C57BL/6JOlaHsd mice [5]; 0.2 mg/kg i.p., age 3 weeks, saline instead of DOI): significantly increased | DOI-induced HTR frequency (C57BL/6JOlaHsd mice [1]; [9]): reduced | DOI-induced HTR frequency (C57BL/6JOlaHsd mice [1]; [10]): reduced | DOI-induced repetitive head twitches (C57BL/6JOlaHsd mice [1]): able to reduce

CCCCCOc1c(OC)ccc2cc(C(=O)NCc3ccc4c(c3)OCO4)c(=O)[nH]c12 [JTE-907, N-(benzo[1,3]dioxol-5-ylmethyl)-7-methoxy-2-oxo-8-pentyloxy-1,2-dihydroquinoline-3-carboxamide]
number of buried marbles (C57BL/6JOlaHsd mice [6]; 5 mg/kg i.p.): reduced | DOI-induced HTR frequency (C57BL/6JOlaHsd mice [1]; [9]): reduced | DOI-induced HTR frequency (C57BL/6JOlaHsd mice [1]; [10]): reduced

C=CCc1ccc(O)c(-c2ccc(OC)c(CC=C)c2)c1 [MH, 2-(4-Methoxy-3-prop-2-enylphenyl)-4-prop-2-enylphenol]
number of buried marbles (C57BL/6JOlaHsd mice [6]; 10 mg/kg i.p.): reduced | Ki (CB2 receptor): 0.05 µM | DOI-induced HTR frequency in CB2 receptor knockout mice ([2]; mouse, in vivo): did not reduce | HTR, drug alone (C57BL/6JOlaHsd mice [5]; doses 1-20 mg/kg i.p., age 6 weeks, no DOI): did not induce HTR at any dose | frequency of DOI-induced ESR behavior (C57BL/6JOlaHsd mice [3]; i.p., one hour before DOI 1 mg/kg): reduced | DOI-induced HTRs (C57BL/6JOlaHsd mice [1]; 1 mg/kg i.p., age 3 weeks, one hour before DOI 1 mg/kg): reduced | DOI-induced HTRs (C57BL/6JOlaHsd mice [1]; 1 mg/kg i.p., age 6 weeks, one hour before DOI 1 mg/kg): reduced | DOI-induced HTR frequency (C57BL/6JOlaHsd mice [1]; 1 mg/kg oral (gavage) in self-emulsifying oral formulation, age 3 weeks, two hours before DOI 1 mg/kg i.p.): significantly reduced | DOI-induced HTR frequency (C57BL/6JOlaHsd mice [1]; [10]): reduced | DOI-induced HTRs (C57BL/6JOlaHsd mice [1]; 5 mg/kg i.p., age 6 weeks, one hour before DOI 1 mg/kg): reduced | DOI-induced HTR frequency (C57BL/6JOlaHsd mice [1]; 5 mg/kg oral (gavage) in self-emulsifying oral formulation, age 3 weeks, two hours before DOI 1 mg/kg i.p.): significantly reduced | effect to reverse DOI-induced HTR, age 3 weeks vs 6 weeks (C57BL/6JOlaHsd mice [1]; i.p., after 20 min from DOI injection): higher at age 3 weeks than 6 weeks | effect on DOI-induced HTR frequency, 1 mg/kg vs 5 mg/kg (C57BL/6JOlaHsd mice [1]; oral formulation, age 3 weeks): greater than this of 5 mg/kg | vocal tic-like behavior (number of ultrasonic vocal events) (Sabra mice; SR141716A 5 mg/kg s.c. postnatal day 1-3, drug s.c. at age 13 days, one hour before recording): significantly reduces | urge-like response (grooming/ESR), drug alone (C57BL/6JOlaHsd mice [7]): did not induce urge-like response at any dose
